Measured values reported in patent publication US20230233470A1, “Formulations” (ViiV Healthcare Company, priority 2020, published 2023).

Key:
[1] = Dissolution (% released), USP <711> and Ph. Eur. 2.9.3; type: physicochemical; settings: active released from Triumeq Dispersible Bilayer Tablet; Q = 75% at 60 minutes
[2] = Initial relative bioavailability PK study: Triumeq bilayer tablets dispersed in Contrex or purified water vs 4 x 10 mg DTG tablet + Kivexa; type: in vivo; settings: for AUC0-inf (h*ug/mL) Ratio / Cmax (ug/mL) Ratio: DTG; for impact of DTG solubility on DTG levels in plasma / PK: solubility range studied 16-70%; for differences in exposure across all 5 arms: Treatments A-E
Description: Treatment (TRT) A: Reference 4×10 mg DTG tablet+Kivexa (ABC 600 mg/3TC 300 mg)
(§1) Treatment B-E: Triumeq bilayer tablets—4 tablets (10 mg DTG/ABC 150 mg/3TC 75 mg) dispersed in high mineral content water (Contrex)* or purified water.
(§2) *Contrex water contains a very high level of minerals including calcium, purified water is mineral free.

[3] = Estimate of DTG solubility in the dispersion; type: physicochemical; settings: for solubility when dispersed: Triumeq bilayer tablets dispersed in water
Description: as §1, §2

[4] = Relative bioavailability: Trii Dispersible tablet (dispersed or direct to mouth) vs adult TRIUMEQ tablet; type: in vivo; settings: for differences in exposure: dispersed or direct to mouth vs. the IR tablet
[5] = B vs A: bi-layer tablet in Contrex water, immediate, vs 4 × 10 mg tablet + Kivexa
[6] = C vs A: bi-layer tablet in Contrex water, 30 mins, vs control
[7] = D vs A: bi-layer tablet in purified water, immediate, vs control
[8] = E vs A: bi-layer tablet in purified water, 30 mins, vs control

## C[C@@H]1CCO[C@H]2Cn3cc(C(=O)NCc4ccc(F)cc4F)c(=O)c(O)c3C(=O)N12 [Dolutegravir, (4R,12aS)-N-[(2,4-difluorophenyl)methyl]-7-hydroxy-4-methyl-6,8-dioxo-3,4,12,12a-tetrahydro-2H-pyrido[5,6]pyrazino[2,6-b][1,3]oxazine-9-carboxamide]
[1]
  Dissolution (% released): 91 (87-95) %
[2]; [5]
  AUC0-inf (h*ug/mL) Ratio: 1.56
  Cmax (ug/mL) Ratio: 1.59
[2]; [6]
  AUC0-inf (h*ug/mL) Ratio: 1.53
  Cmax (ug/mL) Ratio: 1.56
[2]; [7]
  AUC0-inf (h*ug/mL) Ratio: 1.58
  Cmax (ug/mL) Ratio: 1.56
[2]; [8]
  AUC0-inf (h*ug/mL) Ratio: 1.54
  Cmax (ug/mL) Ratio: 1.58
[2]; bilayer tablets dispersed (B-E) vs reference 4×10 mg DTG tablet + Kivexa
  exposure compared to the reference, fold: ~1.6 ×
[2]
  impact of DTG solubility on DTG levels in plasma / PK: no impact on PK
[2]; listed as DTG
  impact of DTG solubility on DTG levels in plasma / PK: does not impact
[3]; Treatment B: Bi-layer tablet, Contrex water (Ca++) plus flavour and sweetener, dispersion time immediate
  Estimate of DTG solubility: Approx. 45% DTG
[3]; Treatment C: Bi-layer tablet, Contrex water (Ca++) plus flavour and sweetener, dispersion time 30 mins
  Estimate of DTG solubility: Approx. 45% DTG
[3]; Treatment D: Bi-layer tablet, purified water plus flavour and sweetener, dispersion time immediate
  Estimate of DTG solubility: Approx. 70% DTG
[3]; Treatment E: Bi-layer tablet, purified water plus flavour and sweetener, dispersion time 30 mins
  Estimate of DTG solubility: Approx. 16% DTG
[4]; dosed as dispersion vs adult immediate release tablet
  exposure, fold: ~1.6 ×
[4]; dosed direct to mouth vs adult immediate release tablet
  exposure, fold: ~1.25 ×

## Nc1ccn([C@@H]2CS[C@H](CO)O2)c(=O)n1 [Lamivudine, 2′,3′-dideoxy-3′-thiacytidine]
[1]
  Dissolution (% released): 99 (92-106) %
[2]
  differences in exposure across all 5 arms: no differences in exposure
[3]
  solubility when dispersed: fully soluble
[4]
  differences in exposure: No differences in exposure

## Nc1nc(NC2CC2)c2ncn([C@H]3C=C[C@@H](CO)C3)c2n1 [Abacavir, (1S,4R-4-[2-amino-6-cyclopropylamino)-9H-purin-9-yl]-2-cyclopentene-1-methanol hemisulfate]
[1]
  Dissolution (% released): 101 (99-104) %
[2]
  differences in exposure across all 5 arms: no differences in exposure
[3]
  solubility when dispersed: fully soluble
[4]
  differences in exposure: No differences in exposure
